Patent publication US5543420A, “Quinoline-3-acetic acid derivative, process for production thereof and use thereof” (The Green Cross Corporation, priority 1993, dated 1996)

Tests used:
[1] = test system: sorbitol accumulation in tissues (erythrocytes, sciatic nerve, lens); assay: Inhibitory action on sorbitol accumulation in tissues of rats with experimental diabetes; assay type: in vivo, Sprague-Dawley rats; conditions: streptozotocin rats, 3 hours after final administration, control taken as 100%
Method: Sprague-Dawley rats (male, 6 weeks old, 5-6 per group) were fasted for 18 hours and injected with streptozotocin (SIGMA, 60 mg/kg) via the tail vein under etherization to prepare rats with diabetes.
[…] During the administrations, the rats were raised under free access to feed and water and the sorbitol content in the tissues (erythrocytes, sciatic nerve, lens) was determined 3 hours after the final administration according to the enzyme method of H. Y. Bergmeyer et al. [Methods of Enzymatic Analysis, vol. 3, 1323-1330 (1974)] with the use of SDH (sorbitol dehydrogenase) and NAD (β-nicotinamide adenine dinucleotide). The results are expressed in percent (%) relative to the value of a control group administered with 0.5% carboxymethylcellulose solution (solvent) instead of the compound, which was taken as 100%.

aldose reductase = target: T1, aldose reductase (Sus scrofa, UniProt P80276); assay: Aldose reductase inhibitory action; assay type: biochemical; conditions: swine lens enzyme, diglyceraldehyde substrate 3 mM, 0.1 mM NADPH, pH 6.2, 25° C., 2 minutes; read-out: IC50 (concentration inhibiting the aldose reductase activity by 50%)
T1 construct: An aldose reductase enzyme standard product was prepared from swine lens; from tissue; host or cells: swine lens
Method: An aldose reductase enzyme standard product was prepared from swine lens according to the method of S. Hayman et al. [Journal of Biological Chemistry, 240, 877-882 (1965)]. That is, swine lenses freeze-stored at -80° C. were homogenized with distilled water and cetrifuged at 10,000 g for 15 minutes. The supernatant was prepared into a 40% ammonium sulfate solution and subjected to cetrifugation at 10,000 g for 10 minutes. The supernatant obtained was dialyzed overnight against a 0.05M sodium chloride solution to give a dialyzed solution, which was used as an enzyme standard product.
The activity of aldose reductase was determined by the above-mentioned method of S. Hayman et al. That is, the above-mentioned enzyme solution (25 μl) and a drug solution (25 μl) in 1% DMSO at various concentrations were added to a 40 mM phosphate buffer (200 μl, pH 6.2) containing final concentrations of 0.4M lithium sulfate, 0.1 mM NADPH (reduced type nicotinamide adenine dinucleotide phosphate) and 3 mM diglyceraldehyde as a substrate. The mixture was allowed to react at 25° C. for 2 minutes and the changes in absorbance at 340 nm was determined with COBAS FARA II (manufactured by Roche).
The changes in absorbance when 1% DMSO was added instead of the drug solution was taken as 100%, based on which 50% inhibition concentration (IC50) was calculated and shown in Table 1.
The test drug number indicates the example number to be mentioned later. Compound A is 3,4-dihydro-2,8-diisopropyl-3-thioxo-2H-1,4-benzoxazine-4-acetic acid disclosed in Japanese Patent Unexamined Publication 107970/1988.

Normal ICR mice = conditions: mouse, in vivo
Method: The acute toxicity (safety) of the compound of the present invention was confirmed by the following method.
Normal ICR mice (male, 7 weeks old, 5 per group) were fasted for 18 hours and the compounds (300 mg/kg) of Example 11 and Example 20 were orally administered as 0.5% carboxymethylcellulose suspensions. To the control group, a 0.5% carboxymethylcellulose solution alone was orally administered and observation was continued for 14 days thereafter, during which period the mice were allowed to take feed and water freely.

[2] = 30 mg/kg oral at 4, 8 and 24 hours
[3] = 10 mg/kg oral at 4, 8 and 24 hours

Row | SMILES | Sorbitol accumulation, erythrocytes [1, 2] [%] | Sorbitol accumulation, lens [1, 2] [%] | Sorbitol accumulation, sciatic nerve [1, 2] [%] | IC50 (aldose reductase) [nM] | Sorbitol accumulation, erythrocytes [1, 3] [%] | Sorbitol accumulation, lens [1, 3] [%] | Sorbitol accumulation, sciatic nerve [1, 3] [%] | death of the mice (Normal ICR mice)
1 | CC(C)c1cccc2c1OC(C(C)C)C(=S)N2CC(=O)O (stereo not shown) [Compound A, 3,4-dihydro-2,8-diisopropyl-3-thioxo-2H-1,4-benzoxazine-4-acetic acid, reference compound] | 53.7 | 87.3 | 54.9 | – | – | – | – | –
2 | O=C(O)CC1Cc2ccccc2N(Cc2nc3c(F)c(F)cc(F)c3s2)C1=O (stereo not shown) [Example 11, 1-(4,5,7-Trifluorobenzothiazol-2-Yl)Methyl-2-Oxo-1,2,3,4-Tetrahydro-1H-Quinolin-3-Ylacetic Acid] | – | – | – | 9 | 15.6 | 50.7 | 0.0 | no case of death
3 | O=C(O)CC1Cc2ccccc2N(Cc2nc3c(F)c(F)ccc3s2)C1=O (stereo not shown) [Example 12, 1-(4,5-difluorobenzothiazol-2-yl)methyl-2-oxo-1,2,3,4-tetrahydro-1H-quinolin-3-ylacetic acid] | – | – | – | 13 | 0.0 | 78.8 | 0.0 | –
4 | Cc1ccc2c(c1)CC(CC(=O)O)C(=O)N2Cc1nc2c(F)c(F)cc(F)c2s1 (stereo not shown) [Example 17, 1-(4,5,7-trifluorobenzothiazol-2-yl)methyl-6-methyl-2-oxo-1,2,3,4-tetrahydro-1H-quinolin-3-ylacetic acid] | – | – | – | 11 | 31.2 | 46.9 | 0.5 | –
5 | O=C(O)CC1Cc2cc(F)ccc2N(Cc2nc3c(F)c(F)cc(F)c3s2)C1=O (stereo not shown) [Example 19, 6-fluoro-1-(4,5,7-trifluorobenzothiazol-2-yl)methyl-2-oxo-1,2,3,4-tetrahydro-1H-quinolin-3-ylacetic acid] | – | – | – | 12 | – | – | – | –
6 | O=C(O)Cc1cc2ccccc2n(Cc2nc3c(F)c(F)cc(F)c3s2)c1=O [Example 20, 1-(4,5,7-trifluorobenzothiazol-2-yl)methyl-2-oxo-1,2-dihydro-1H-quinolin-3-ylacetic acid] | – | – | – | 9.4 | – | – | – | no case of death
